Read-outs that look alike come from different tables or passages of the source.
Legend:
Assay type in all cases: biochemical, Gluconobacter oxydans DSM No. 4025 (FERM BP-3812)
[1] = target: T1, SNDH II (aldehyde dehydrogenase) (Ketogulonicigenium vulgare, UniProt Q402A8); assay: Effect of inhibitors and metals on L-sorbosone dehydrogenase activity, photometrical DCIP assay
Procedure: (§1) The reaction mixture consisted of 0.1 mM DCIP, 1.0 mM PMS, 50 mM potassium phosphate buffer (pH 7.0), 1.0 μM PQQ, 2 to 100 mM substrate (L-sorbosone, D-glucosone, D-glucose, etc.) and enzyme solution in a final volume of 100 μl water, said reaction mixture was prepared just before the assay. The reaction was started at 25° C. with L-sorbosone, and the enzyme activity was measured as the initial reduction rate of DCIP at 600 nm. One unit of the enzyme activity was defined as the amount of the enzyme catalyzing the reduction of 1 μmol DCIP per minute. The extinction coefficient of DCIP at pH 7.0 was taken as 14.2 mM^−1. A reference cuvette contained all the above constituents except for L-sorbosone.
The effects of metal ions and inhibitors on the L-sorbosone dehydrogenase activity of the enzyme were examined by measuring the activity using the same assay method as described under 1b) above. Each compound solution was stirred into the basal reaction mixture and the reaction was started with the addition of the enzyme.
Each compound was added to the reaction mixture at a concentration of 1.0 mM, with the exception that the concentrations of EDTA, NaN3 and monoiodoacetate were 5.0 mM.

[2] = target: T1, SNDH II (aldehyde dehydrogenase); assay: Electron acceptor suitability for conversion of L-sorbosone; conditions: conversion of L-sorbosone to vitamin C and/or 2-KGA
Description: This was affirmed by the failure of the enzyme to convert L-sorbosone to vitamin C and/or 2-KGA using oxygen as a possible electron acceptor. Furthermore, no oxygen consumption was detected in the reaction mixture as detected with a dissolved oxygen probe. […] However, other conventional electron acceptors can be utilized in conjunction with the enzyme of this invention. Preferred electron acceptors are phenazine methosulfate (PMS), 2,6-dichlorophenolindophenol (DCIP), ferricyanide and cytochrome c. There is no minimum amount of electron acceptors which must be present for at least some of the aldehyde substrate to be converted to its corresponding acid. However, the amount of substrate which can be oxidized depends on the amount of the particular electron acceptor and its electron accepting characteristics.

[3] = target: T1, SNDH II (aldehyde dehydrogenase); assay: Substrate specificity of the purified enzyme, photometrical DCIP assay; conditions: for Relative activity (%): L-sorbosone and D-glucosone 2 mM, other substrates 100 mM, L-sorbosone = 100; for Product (deduced product of the oxidation of the substrate): substrates of Table 1A; for Relative activity compared with that for L-sorbosone (2 mM): at both pH 7.5 and 9.0, D-glucosone 2 mM, others 100 mM
Procedure: as §1
a) The substrate specificity of the enzyme was determined using the same enzyme assay method as described under 1b) above with the exception of using 100 mM potassium phosphate (pH 7.5) or 100 mM Tris-HCl (pH 9.0) as buffer. The relative activity of SNDH II for D-glucosone (2 mM), D-glucose (100 mM), and D-xylose (100 mM) was higher than that for L-sorbosone (2 mM) at both pH 7.5 and 9.0. However, the relative activity for L-sorbose (100 mM), D-sorbitol (100 mM), and L-gulono-γ-lactone (100 mM) was lower than 1% of that for L-sorbosone at both pH 7.5 and 9.0.

[4] = compound at 1.0 mM, None = 100.0
[5] = pH 7.5, 100 mM potassium phosphate

T1 sequence (Q402A8 entry or part of it): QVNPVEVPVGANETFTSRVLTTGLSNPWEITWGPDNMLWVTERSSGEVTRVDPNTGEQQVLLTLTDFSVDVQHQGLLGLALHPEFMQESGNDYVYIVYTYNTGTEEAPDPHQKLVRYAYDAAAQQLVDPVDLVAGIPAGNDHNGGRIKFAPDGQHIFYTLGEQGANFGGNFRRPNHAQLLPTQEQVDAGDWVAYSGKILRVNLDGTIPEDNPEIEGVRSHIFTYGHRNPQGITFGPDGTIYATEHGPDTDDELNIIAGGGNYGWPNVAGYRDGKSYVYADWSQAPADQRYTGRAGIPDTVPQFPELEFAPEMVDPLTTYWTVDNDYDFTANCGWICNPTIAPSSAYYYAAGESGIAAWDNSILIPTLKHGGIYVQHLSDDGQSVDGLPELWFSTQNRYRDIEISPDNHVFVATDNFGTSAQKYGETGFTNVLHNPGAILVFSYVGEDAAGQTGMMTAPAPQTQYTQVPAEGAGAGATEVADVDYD

O=S(=O)([O-])[O-].[Cu+2] [CuSO4]
Relative activity (%) [1, 4]: <1%
Effect on the enzyme activity ([1]; metal ions, 1.0 mM): inhibited

O.O.[Ca+2].[Cl-].[Cl-] [CaCl2.2H2O]
Relative activity (%) [1, 4]: 94.7%

O.O.O.O.O.O.[Cl-].[Cl-].[Co+2] [CoCl2.6H2O]
Relative activity (%) [1, 4]: 60.8%
Effect on the enzyme activity ([1]; metal ions, 1.0 mM): inhibited

O=O [oxygen]
Suitability as electron acceptor [2]: does not work

O=CC(=O)[C@@H](O)[C@H](O)[C@@H](O)CO [L-Sorbosone]
Relative activity (%) [3, 5]: 100%
Relative activity (%) ([3]; pH 9.0, 100 mM Tris-HCl): 100%
Product (deduced product of the oxidation of the substrate) [3]: Vitamin C/2-KGA

O.O.O.O.O.O.O=S(=O)([O-])[O-].[Ni+2] [NiSO4.6H2O]
Relative activity (%) [1, 4]: 82.9%
Effect on the enzyme activity ([1]; metal ions, 1.0 mM): inhibited

O=CC(=O)[C@@H](O)[C@H](O)[C@H](O)CO [D-Glucosone]
Relative activity compared with that for L-sorbosone (2 mM) [3]: higher
Relative activity (%) [3, 5]: 483%
Product (deduced product of the oxidation of the substrate) [3]: D-iso-Ascorbic acid/2-Keto-D-gluconate

O=C[C@H](O)[C@@H](O)[C@H](O)CO [D-Xylose]
Relative activity compared with that for L-sorbosone (2 mM) [3]: higher
Product (deduced product of the oxidation of the substrate) [3]: D-Xylonic acid

[Cl-].[Cl-].[Mg+2] [MgCl2]
Relative activity (%) [1, 4]: 88.5%

OC[C@@H](O)[C@@H](O)[C@H](O)[C@@H](O)CO [D-Sorbitol]
Relative activity (%) [3, 5]: <1%
Relative activity (%) ([3]; pH 9.0, 100 mM Tris-HCl): <1%

O=C(O)CN(CCN(CC(=O)O)CC(=O)O)CC(=O)O [EDTA]
Relative activity (%) [1]: 97.9%

O=C[C@H](O)[C@@H](O)[C@H](O)[C@H](O)CO [D-Glucose]
Relative activity compared with that for L-sorbosone (2 mM) [3]: higher
Product (deduced product of the oxidation of the substrate) [3]: D-Gluconate

[N-]=[N+]=[N-].[Na+] [NaN3]
Relative activity (%) ([1]; compound at 5.0 mM, None = 100.0): 98.4%

O=S(=O)([O-])[O-].O=S(=O)([O-])[O-].O=S(=O)([O-])[O-].[Fe+3].[Fe+3] [Fe2(SO4)3.xH2O]
Relative activity (%) [1, 4]: 73.2%
Effect on the enzyme activity ([1]; metal ions, 1.0 mM): inhibited

NC(=O)c1ccc[n+]([C@@H]2O[C@H](COP(=O)([O-])OP(=O)(O)OC[C@H]3O[C@@H](n4cnc5c(N)ncnc54)[C@H](O)[C@@H]3O)[C@@H](O)[C@H]2O)c1 [NAD]
Suitability as electron acceptor [2]: not suitable electron acceptors

NC(=O)c1ccc[n+]([C@H]2O[C@@H](COP(=O)([O-])OP(=O)(O)OC[C@H]3O[C@@H](n4cnc5c(N)ncnc54)[C@H](OP(=O)(O)O)[C@@H]3O)[C@H](O)[C@@H]2O)c1 [NADP]
Suitability as electron acceptor [2]: not suitable electron acceptors

[Cl][Ti]([Cl])([Cl])[Cl] [TiCl4]
Relative activity (%) [1, 4]: 95.9%

O=C(O)CI [Monoiodoacetate]
Effect on the enzyme activity [1]: strongly inhibited
Relative activity (%) [1]: 34.7%

O=C1O[C@H]([C@@H](O)CO)[C@H](O)[C@@H]1O [L-Gulono-γ-lactone]
Relative activity (%) [3, 5]: <1%
Relative activity (%) ([3]; pH 9.0, 100 mM Tris-HCl): <1%

[Cl-].[Cl-].[Zn+2] [ZnCl2]
Relative activity (%) [1, 4]: 64.9%
Effect on the enzyme activity ([1]; metal ions, 1.0 mM): inhibited

O=C(CO)[C@@H](O)[C@H](O)[C@@H](O)CO [L-Sorbose]
Relative activity (%) [3, 5]: <1%
Relative activity (%) ([3]; pH 9.0, 100 mM Tris-HCl): <1%

— patent US20050153412A1, “Aldehyde dehydrogenase II” (priority 2002, published 2005)
